Experimental data published in patent publication US6596723B1, “Fungal efflux pump inhibitors” (Essential Therapeutics, Inc., priority 2001, dated 2003).
Where two headings read alike, the source gives them in different places.

Columns and labels:
A. fumigatus = assay: potentiation of Posaconazole vs. A. fumigatus; assay type: cell-based, Aspergillus fumigatus; conditions: 15 strains
[1] = tested on: clinical isolates of C. parapsilosis; assay: potentiation of fluconazole vs. clinical isolates of C. parapsilosis; assay type: cell-based; conditions: Lodderomyces parapsilosis
[2] = tested on: clinical isolates of C. krusei; assay: potentiation of fluconazole vs. clinical isolates of C. krusei; assay type: cell-based; conditions: Pichia kudriavzevii
[3] = tested on: clinical isolates of C. tropicalis; assay: potentiation of fluconazole vs. clinical isolates of C. tropicalis; assay type: cell-based; conditions: for MIC50 / MIC90: Candida tropicalis
[4] = fluconazole MIC with FEPI at 16-32 μg/ml, read-out: MIC50 Flu + FEPI
[5] = fluconazole MIC with FEPI at 16-32 μg/ml, read-out: MIC90 Flu + FEPI
[6] = fluconazole MIC with FEPI at 16-32 μg/ml, C. krusei clinical isolates, read-out: MIC50 Flu + FEPI
[7] = fluconazole MIC with FEPI at 16-32 μg/ml, C. krusei clinical isolates, read-out: MIC90 Flu + FEPI
[8] = fluconazole MIC with FEPI at 16-32 μg/ml, C. tropicalis clinical isolates, read-out: MIC90 Flu + FEPI

Structure (SMILES)	MPC8 (A. fumigatus; concentration of efflux pump inhibitor to reduce MIC of Posaconazole 8-fold) [µg/mL]	MIC (A. fumigatus; Aspergillus fumigatus, footnote: minimum inhibitor concentration of Posaconazole alone to achieve 80% inhibition) [µg/mL]	MIC50 [1, 4] [µg/mL]	MIC90 [1, 5] [µg/mL]	MIC50 [2, 6] [µg/mL]	MIC90 [2, 7] [µg/mL]	MIC50 ([3]; fluconazole MIC with FEPI at 16-32 μg/ml, […], read-out: MIC50 Flu + FEPI) [µg/mL]	MIC90 [3, 8] [µg/mL]	MIC50 ([3]; fluconazole MIC with FEPI at 16-32 μg/ml, C. tropicalis clinical isolates, read-out: MIC50 Flu + FEPI) [µg/mL]	MIC50 ([1]; fluconazole alone, read-out: MIC50 Flu only) [µg/mL]	MIC90 ([1]; fluconazole alone, read-out: MIC90 Flu only) [µg/mL]	MIC90 ([2]; read-out: MIC90 Flu only) [µg/mL]	MIC50 ([2]; fluconazole alone, C. krusei clinical isolates, read-out: MIC50 Flu only) [µg/mL]	MIC50 ([3]; read-out: MIC50 Flu only) [µg/mL]	MIC90 ([3]; read-out: MIC90 Flu only) [µg/mL]	MIC50 Flu only ([3]; listed as Flu) [µg/mL]
COc1ccc(N(C(=O)Nc2cccc(Cl)c2)C(C)c2nc3ccccc3c(=O)n2N2CCN(C)CC2)c(OC)c1 (stereo not drawn) [Compound 1, 3-(3-Chloro-phenyl)-1-(2,4-dimethoxy-phenyl)-1-{1-[3-(4-methyl-piperazin-1-yl)-4-oxo-3,4-dihydro-quinazolin-2-yl]-ethyl}-urea]	8 to 32	> 32	< 0.03	0.25	32	> 32	0.125	2								
COc1ccc(N(C(=O)Nc2cccc(Cl)c2)C(C)c2nc3ccccc3c(=O)n2N2CCN(CCO)CC2)c(OC)c1 (stereo not drawn) [Compound 3, 3-(3-Chloro-phenyl)-1-(2,4-dimethoxy-phenyl)-1-(1-{3-[4-(2-hydroxy-ethyl)-piperazin-1-yl]-4-oxo-3,4-dihydro-quinazolin-2-yl}-ethyl)-urea]			< 0.03	0.5	> 32	> 32		8	0.25							
OC(Cn1cncn1)(Cn1cncn1)c1ccc(F)cc1F [fluconazole, reference compound]										1	4	> 128	64	> 128	> 128	128
